Results as given in patent US4572908A, “Dihydropyridines” (Pfizer Inc., priority 1982, dated 1986).

Test system: rat aorta
Assay: inhibition of calcium-induced contraction (change in tension) of spirally cut strips of rat aorta in K+ 45 mM saline
Format: cell-based
Conditions: 0.75 h, 45 millimolar potassium, 2 millimolar calcium, 45 minutes, read-out: IC50 (molar concentration required to reduce the response by 50%)
Protocol: The ability of the compounds to inhibit the movement of calcium into the cell is shown by their effectiveness in reducing the response of isolated heart tissue to an increase in calcium ion concentration in vitro. The test is performed by mounting spirally cut strips of rat aorta with one end fixed and the other attached to a force transducer. The tissue is immersed in a bath of physiological saline solution containing potassium ions at a concentration of 45 millimolar and no calcium. Calcium chloride is added to the bath with a pipette to give a final calcium ion concentration of 2 millimolar. The change in tension caused by the resulting contraction of the tissue is noted. The bath is drained and replaced with fresh saline solution and, after 45 minutes, the test is repeated with the particular compound under test present in the saline solution. The concentration of compound required to reduce the response by 50% (IC50) is recorded.
The molar concentrations of the compounds required to reduce the response by 50% in the test specified on pages 16-17 are given below (1M=1 gm.Mole/liter).

IC50 | Structure (SMILES)
20 nM | CCOC(=O)C1=C(COCCNc2nc(N)n[nH]2)NC(C)=C(C(=O)OC)C1c1ccccc1Cl (centres unmarked) [Example 1B, 2-[2-(3-Amino-1H-1,2,4-triazol-5-ylamino)ethoxymethyl]-4-(2-chlorophenyl)-3-ethoxycarbonyl-5-methoxycarbonyl-6-methyl-1,4-dihydropyridine]
2.29 nM | CCOC(=O)C1=C(COCCNc2nc(N)n[nH]2)NC(C)=C(C(=O)OC)C1c1cccc(C(F)(F)F)c1Cl (centres unmarked) [Example 2, 2-[2-(3-Amino-1H-1,2,4-triazol-5-ylamino)ethoxymethyl]-4-(2-chloro-3-trifluoromethylphenyl)-3-ethoxycarbonyl-5-methoxycarbonyl-6-methyl-1,4-dihydropyridine]
6.02 nM | CCOC(=O)C1=C(COCCNc2nnc(N)[nH]2)NC(C)=C(C(=O)OC)C1c1cccc(Cl)c1Cl (centres unmarked) [Example 3B]
8.12 nM | CCOC(=O)C1=C(COCCNc2nc(N)n(C)n2)NC(C)=C(C(=O)OC)C1c1ccccc1Cl (centres unmarked) [Example 4]
3.02 nM | CCOC(=O)C1=C(COCCNc2nc(N)n(C)n2)NC(C)=C(C(=O)OC)C1c1cccc(Cl)c1Cl (centres unmarked) [Example 5]
11.5 nM | CCOC(=O)C1=C(COCCNc2noc(N)n2)NC(C)=C(C(=O)OC)C1c1ccccc1Cl (centres unmarked) [Example 6, 2-[2-(5-Amino-1,2,4-oxadiazol-3-ylamino)ethoxymethyl]-4-(2-chlorophenyl)-3-ethoxycarbonyl-5-methoxycarbonyl-6-methyl-1,4-dihydropyridine]
3.47 nM | CCOC(=O)C1=C(COCCNc2noc(N)n2)NC(C)=C(C(=O)OC)C1c1cccc(C(F)(F)F)c1Cl (centres unmarked) [Example 7]
10.5 nM | CCOC(=O)C1=C(COCCNc2nccc(=O)[nH]2)NC(C)=C(C(=O)OC)C1c1ccccc1Cl (centres unmarked) [Example 8, 4-(2-Chlorophenyl)-3-ethoxycarbonyl-5-methoxycarbonyl-6-methyl-2-[2-(3,4-dihydro-4-oxo-pyrimidin-2-ylamino)ethoxymethyl]-1,4-dihydropyridine]
12.6 nM | CCOC(=O)C1=C(COCCNC2=NCC(=O)N2)NC(C)=C(C(=O)OC)C1c1ccccc1Cl (centres unmarked) [Example 9]
1.9 nM | CCOC(=O)C1=C(COCCNc2ccncn2)NC(C)=C(C(=O)OC)C1c1ccccc1Cl (centres unmarked) [Example 10]
426 nM | CCOC(=O)C1=C(COCCNc2nc(N)nc(N)n2)NC(C)=C(C(=O)OC)C1c1ccccc1Cl (centres unmarked) [Example 11]
28.8 nM | CCOC(=O)C1=C(COCCNc2cc[nH]c(=O)n2)NC(C)=C(C(=O)OC)C1c1ccccc1Cl (centres unmarked) [Example 12]
6.3 nM | CCOC(=O)C1=C(COCCNc2ccnc(N)n2)NC(C)=C(C(=O)OC)C1c1ccccc1Cl (centres unmarked) [Example 13]
10 nM | CCOC(=O)C1=C(COCCNc2cc(=O)[nH]cn2)NC(C)=C(C(=O)OC)C1c1ccccc1Cl (centres unmarked) [Example 14]
50.1 nM | CCOC(=O)C1=C(COCCNc2cc(=O)n(C)c(=O)n2C)NC(C)=C(C(=O)OC)C1c1ccccc1Cl (centres unmarked) [Example 15]
100 nM | CCOC(=O)C1=C(COCCNc2ncnc3[nH]cnc23)NC(C)=C(C(=O)OC)C1c1ccccc1Cl (centres unmarked) [Example 16]
13.1 nM | CCOC(=O)C1=C(COCCNc2nc3cc(OC)c(OC)cc3c(=O)[nH]2)NC(C)=C(C(=O)OC)C1c1ccccc1Cl (centres unmarked) [Example 17]
31.6 nM | CCOC(=O)C1=C(COCCNc2ccnc(Cl)n2)NC(C)=C(C(=O)OC)C1c1ccccc1Cl (centres unmarked) [Example 18]
10 nM | CCOC(=O)C1=C(COCCNc2nc3ccccc3s2)NC(C)=C(C(=O)OC)C1c1ccccc1Cl (centres unmarked) [Example 19]
100 nM | CCOC(=O)C1=C(COCCNC2=NCCC2)NC(C)=C(C(=O)OC)C1c1ccccc1Cl (centres unmarked) [Example 20]

IC50 | Structure (SMILES)
100 nM | CCOC(=O)C1=C(COCCNC2=NCCN2)NC(C)=C(C(=O)OC)C1c1ccccc1Cl (centres unmarked) [Example 21]
18.2 nM | CCOC(=O)C1=C(COCCNc2ccc(C(N)=O)cn2)NC(C)=C(C(=O)OC)C1c1ccccc1Cl (centres unmarked) [Example 22]
100 nM | CCOC(=O)C1=C(COCCNC2=NC(C)(C)C(=O)N2)NC(C)=C(C(=O)OC)C1c1ccccc1Cl (centres unmarked) [Example 23]
10 nM | CCOC(=O)C1=C(COCCNc2nc(C)cc(=O)[nH]2)NC(C)=C(C(=O)OC)C1c1ccccc1Cl (centres unmarked) [Example 24]
45.7 nM | CCOC(=O)C1=C(COCCNc2ncccc2C(N)=O)NC(C)=C(C(=O)OC)C1c1ccccc1Cl (centres unmarked) [Example 25]
3.71 nM | CCOC(=O)C1=C(COCCNc2ncc(S(=O)(=O)N(C)C)s2)NC(C)=C(C(=O)OC)C1c1ccccc1Cl (centres unmarked) [Example 26]
3.98 nM | CCOC(=O)C1=C(COCCNc2nccc(N)n2)NC(C)=C(C(=O)OC)C1c1ccccc1Cl (centres unmarked) [Example 27]
13.1 nM | CCOC(=O)C1=C(COCCNc2nccc(C#N)n2)NC(C)=C(C(=O)OC)C1c1ccccc1Cl (centres unmarked) [Example 28]
18.1 nM | CCOC(=O)C1=C(COCCNc2nccc(C(N)=O)n2)NC(C)=C(C(=O)OC)C1c1ccccc1Cl (centres unmarked) [Example 29]
2.34 nM | CCOC(=O)C1=C(COCCNc2cc(=O)n(C)cn2)NC(C)=C(C(=O)OC)C1c1ccccc1Cl (centres unmarked) [Example 30]
17.7 nM | CCOC(=O)C1=C(COCCNc2cc(Cl)ncn2)NC(C)=C(C(=O)OC)C1c1ccccc1Cl (centres unmarked) [Example 31]
15.8 nM | CCOC(=O)C1=C(COCCNc2nccnc2Cl)NC(C)=C(C(=O)OC)C1c1ccccc1Cl (centres unmarked) [Example 32]
6.3 nM | CCOC(=O)C1=C(COCCNc2cncc(Cl)n2)NC(C)=C(C(=O)OC)C1c1ccccc1Cl (centres unmarked) [Example 33]
13.1 nM | CCOC(=O)C1=C(COCCNc2nc(N)c3cc(OC)c(OC)cc3n2)NC(C)=C(C(=O)OC)C1c1ccccc1Cl (centres unmarked) [Example 34]
5.75 nM | CCOC(=O)C1=C(COCCNc2ccc(S(N)(=O)=O)cn2)NC(C)=C(C(=O)OC)C1c1ccccc1Cl (centres unmarked) [Example 35]
3.16 nM | CCOC(=O)C1=C(COCCNc2ccc(S(=O)(=O)N3CCN(C=O)CC3)cn2)NC(C)=C(C(=O)OC)C1c1ccccc1Cl (centres unmarked) [Example 36]
10 nM | CCOC(=O)C1=C(COCCNC2=NCC(=O)N2)NC(C)=C(C(=O)OC)C1c1cccc(Cl)c1Cl (centres unmarked) [Example 37]
25.1 nM | CCOC(=O)C1=C(COCCNC2=NC(C)(C)C(=O)N2)NC(C)=C(C(=O)OC)C1c1cccc(Cl)c1Cl (centres unmarked) [Example 38]
2.69 nM | CCOC(=O)C1=C(COCCNc2nccc(=O)[nH]2)NC(C)=C(C(=O)OC)C1c1cccc(Cl)c1Cl (centres unmarked) [Example 39]
2.23 nM | CCOC(=O)C1=C(COCCNc2ccnc(N)n2)NC(C)=C(C(=O)OC)C1c1cccc(Cl)c1Cl (centres unmarked) [Example 40]

IC50 | Structure (SMILES)
0.776 nM | CCOC(=O)C1=C(COCCNc2cc(=O)[nH]cn2)NC(C)=C(C(=O)OC)C1c1cccc(Cl)c1Cl (centres unmarked) [Example 41]
4.16 nM | CCOC(=O)C1=C(COCCNc2nc(C)cc(=O)[nH]2)NC(C)=C(C(=O)OC)C1c1cccc(Cl)c1Cl (centres unmarked) [Example 42]
8.31 nM | CCOC(=O)C1=C(COCCNc2nc(-c3ccccc3)cc(=O)[nH]2)NC(C)=C(C(=O)OC)C1c1cccc(Cl)c1Cl (centres unmarked) [Example 43]
15.8 nM | CCOC(=O)C1=C(COCCNc2nc(-c3ccccn3)cc(=O)[nH]2)NC(C)=C(C(=O)OC)C1c1cccc(Cl)c1Cl (centres unmarked) [Example 44]
1.09 nM | CCOC(=O)C1=C(COCCNc2ccc(S(=O)(=O)N3CCOCC3)cn2)NC(C)=C(C(=O)OC)C1c1cccc(Cl)c1Cl (centres unmarked) [Example 45]
3.01 nM | CCOC(=O)C1=C(COCCNc2ccc(S(=O)(=O)N3CCCCC3)cn2)NC(C)=C(C(=O)OC)C1c1cccc(Cl)c1Cl (centres unmarked) [Example 46]
1.25 nM | CCOC(=O)C1=C(COCCNc2ccc(S(=O)(=O)N(C)C)cn2)NC(C)=C(C(=O)OC)C1c1cccc(Cl)c1Cl (centres unmarked) [Example 47]
29.5 nM | CCOC(=O)C1=C(COCCNc2nc(N)c3cc(OC)c(OC)cc3n2)NC(C)=C(C(=O)OC)C1c1cccc(Cl)c1Cl (centres unmarked) [Example 48]
3.98 nM | CCOC(=O)C1=C(COCCNc2nc3ccccc3nc2Cl)NC(C)=C(C(=O)OC)C1c1cccc(Cl)c1Cl (centres unmarked) [Example 49]
1.34 nM | CCOC(=O)C1=C(COCCNc2c[n+]([O-])ccn2)NC(C)=C(C(=O)OC)C1c1cccc(Cl)c1Cl (centres unmarked) [Example 50, N-oxide of 4-(2,3-dichlorophenyl)-3-ethoxycarbonyl-5-methoxycarbonyl-6-methyl-2-[2-(pyrazin-2-ylamino)ethoxymethyl]-1,4-dihydropyridine]
2.51 nM | CCOC(=O)C1=C(COCCNc2nccnc2Cl)NC(C)=C(C(=O)OC)C1c1cccc(Cl)c1Cl (centres unmarked) [Example 51]
6.02 nM | CCOC(=O)C1=C(COCCNc2cncc(Cl)n2)NC(C)=C(C(=O)OC)C1c1cccc(Cl)c1Cl (centres unmarked) [Example 52]
3160 nM | CCOC(=O)C1=C(COCCNc2cc(Cl)ncn2)NC(C)=C(C(=O)OC)C1c1cccc(Cl)c1Cl (centres unmarked) [Example 53]
1.2 nM | CCOC(=O)C1=C(COCCNc2cc(OC)ncn2)NC(C)=C(C(=O)OC)C1c1cccc(Cl)c1Cl (centres unmarked) [Example 54]
3.72 nM | CCOC(=O)C1=C(COCCNc2nccc(=O)[nH]2)NC(C)=C(C(=O)OC)C1c1cccc(C(F)(F)F)c1Cl (centres unmarked) [Example 59]
44.7 nM | CCOC(=O)C1=C(COCCNc2cc(=O)[nH]cn2)NC(C)=C(C(=O)OC)C1c1cccc(C(F)(F)F)c1Cl (centres unmarked) [Example 60]
2.24 nM | CCOC(=O)C1=C(COCCNc2nc(C)cc(=O)[nH]2)NC(C)=C(C(=O)OC)C1c1cccc(C(F)(F)F)c1Cl (centres unmarked) [Example 61]
1.35 nM | CCOC(=O)C1=C(COCCNc2cc[nH]c(=O)n2)NC(C)=C(C(=O)OC)C1c1cccc(C(F)(F)F)c1Cl (centres unmarked) [Example 62]
2.95 nM | CCOC(=O)C1=C(COCCNc2ccc(C(N)=O)cn2)NC(C)=C(C(=O)OC)C1c1cccc(C(F)(F)F)c1Cl (centres unmarked) [Example 63]
